In paper PMC5736435 (European journal of medicinal chemistry, 2017):
Converted amounts (≈) assume the structure as drawn.

Legend:
PBS solubility screen = type: physicochemical
[1] = phosphate-buffered saline; cited from earlier work
[2] = tested on: human colorectal cells (HRT-18); assay: In vitro cytotoxicity; type: cell-based; conditions: for safety margin: human, 2 h; for concentration not toxic to HRT-18 cells: MTS assay, two hours incubation
[3] = In vivo pharmacokinetics in rats; conditions: rat
BHK-21 = assay: In vitro cytotoxicity; type: cell-based, hamster; conditions: MTT assay
MRSA USA300 [4] = type: cell-based, Staphylococcus aureus; conditions: MRSA USA300, fourteen passages over two weeks
MRSA (2658 RCMB) = assay: MIC by broth microdilution against MRSA clinical isolate 2658 RCMB; type: cell-based; conditions: Staphylococcus aureus
S. aureus NRS107 = assay: MIC by broth microdilution against mupirocin-resistant S. aureus NRS107; type: cell-based, Staphylococcus aureus; conditions: S. aureus NRS107, high-level resistance to mupirocin
S. aureus NRS119 [5] = assay: MIC by broth microdilution against linezolid-resistant S. aureus NRS119; type: cell-based, Staphylococcus aureus; conditions: S. aureus NRS119, resistance to linezolid
S. aureus NRS384 = type: cell-based, Staphylococcus aureus; conditions: S. aureus NRS384, resistance to macrolides and tetracyclines
MRSA USA300 [6] = assay: Time-kill assay against MRSA; type: cell-based, Staphylococcus aureus
S. aureus NRS119 [7] = conditions: cited from earlier work
[8] = in vivo; cited from earlier work

C/C(=N\NC(=N)N)c1sc(-c2ccc(-c3ccccc3)cc2)nc1C [Compound 1b, reference compound]
solubility at 2 h (PBS solubility screen; Solubility limit): 2.2 µM (≈ 0.769 µg/mL) | times less soluble than lead compound 1a [1]: 24 times

CCCCc1ccc(-c2nc(C)c(/C(C)=N/NC(=N)N)s2)cc1 [Compound 1a, reference compound]
safety margin [2]: 32 ×MIC | %F (oral bioavailability) ([3]; 25 mg/kg oral dose): not bioavailable orally

Cc1nc(-c2ccc(-c3ccccc3)cc2)sc1-c1nnc(NC(=N)N2CCOCC2)o1 [Compound 26, N-{5-(2-([1,1′-Biphenyl]-4-yl)-4-methylthiazol-5-yl)-1,3,4-oxadiazol-2-yl}morpholine-4-carboximidamide]
concentration not toxic to HRT-18 cells [2]: 256 µg/mL | tolerability against non-cancerous cell line BHK-21 (BHK-21): highly tolerable | shift in MIC over fourteen passages (MRSA USA300 [4]): No increase in MIC

Cc1nc(-c2ccc(-c3ccccc3)cc2)sc1-c1nnc(NC(=N)N2CCN(C)CC2)o1 [Compound 27, N-{5-(2-([1,1′-Biphenyl]-4-yl)-4-methylthiazol-5-yl)-1,3,4-oxadiazol-2-yl}-4-methylpiperazine-1-carboximid-amide]
MIC (MRSA (2658 RCMB)): 1.1 µg/mL (≈ 2.39 µM) | growth inhibition (S. aureus NRS107): inhibited growth | growth inhibition (S. aureus NRS119 [5]): inhibited growth | growth inhibition (S. aureus NRS384): inhibited growth | MRSA CFU after 24 h (MRSA USA300 [6]; after 24 h, 4 × MIC, 37 °C): completely eradicated | mode of action, bacteriostatic or bactericidal (MRSA USA300 [6]; at the concentration tested (4 × MIC)): bactericidal | concentration not toxic to HRT-18 cells [2]: 512 µg/mL | safety margin [2]: more than 400 ×MIC | tolerability against non-cancerous cell line BHK-21 (BHK-21): highly tolerable | shift in MIC over fourteen passages (MRSA USA300 [4]): No increase in MIC | Cmax relative to MIC against MRSA (2658 RCMB) ([3]; in vivo, po, 25 mg/kg): nearly six-fold

CC(=O)NC[C@H]1CN(c2ccc(N3CCOCC3)c(F)c2)C(=O)O1 [linezolid]
MIC (S. aureus NRS119 [7]): > 128 µg/mL

Cc1nc(-c2ccc(-c3ccccc3)cc2)sc1-c1nnc(NC(=N)N)o1 [Compound 22, 1-{5-(2-([1,1′-Biphenyl]-4-yl)-4-methylthiazol-5-yl)-1,3,4-oxadiazol-2-yl}guanidine]
improvement in aqueous solubility relative to pyrimidine analogue 1c (PBS solubility screen): 43 times

CCC[C@H](NC(=O)[C@@H]1[C@H]2CCC[C@H]2CN1C(=O)[C@@H](NC(=O)[C@@H](NC(=O)c1cnccn1)C1CCCCC1)C(C)(C)C)C(=O)C(=O)NC1CC1 [telaprevir]
oral bioavailability [8]: ≤ 3%
